Holding throughout (assay): growth of human tumour cells (NCI), 48 h
In assay [1] the test system is 786-0.
The subject of assay [2] is A549.
The subject of assay [3] is DU-145.
Assay [4] has as its system KM12.
Assay [5] relates to MCF7.
Assay [6] deals with MDA-MB-231.
In assay [7] the test system is MDA-MB-435.
Assay [8] has as its system MOLT-4.
In assay [9] the test system is Malme-3M.
Assay [10] deals with NCI-H226.
Assay [11] relates to NCI-H23.
In assay [12] the test system is NCI-H460.
The subject of assay [13] is NCI/ADR-RES.
For assay [14], the system named is OVCAR-3.
The test system of assay [15] is SF-268.
In assay [16] the test system is SK-MEL-5.
Assay [17] relates to SNB-19.
Assay [18] relates to SW-620.
The subject of assay [19] is T47D.
Assay [20] concerns UO-31.

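Where inhibition never reached the appropriate level, the endpoint shown equals the highest concentration tested. Otherwise, values were interpolated linearly from a five-concentration, 48-hour dose response in 96-well plates. GI50 marks 50% less growth.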 Calls of active or inactive are those of the source. Cut-off read from the data, not from the text of the source: active = GI50 up to about 1.1 µM and inactive = higher.

On to `CC(C)/C(Cl)=N/OC(=O)Nc1ccc(Cl)c(Cl)c1`, for which the GI50 in [1] was 1.96 µM (inactive); in [2], 21.4 µM (inactive); in assay [3] it was 18.1 µM (inactive); in [4], 17.5 µM (inactive); in assay [5], 9.93 µM (inactive); in assay [6], 14.9 µM (inactive). Further, the GI50 is 5.68 µM (inactive) in [7]; 2.49 µM (inactive) in assay [8]; 2.16 µM (inactive) in [9]; 18.1 µM (inactive) in assay [10]; 15.3 µM (inactive) in [11]; 17 µM (inactive) in [12]. For the same molecule, the GI50 is 16.7 µM (inactive) in assay [13]; 2.58 µM (inactive) in assay [14]; 18.2 µM (inactive) in [15]; 11.6 µM (inactive) in assay [16]; 21.5 µM (inactive) in assay [17]; 2.13 µM (inactive) in assay [18]. Further, the GI50 in assay [19] is 4.29 µM (inactive); in [20], 15.3 µM (inactive).

In the case of `Cc1cn([C@@H]2O[C@H](CO[Si](C)(C)C(C)(C)C)[C@]3(O[C@H]3C(=O)NO)[C@H]2O[Si](C)(C)C(C)(C)C)c(=O)[nH]c1=O`, the GI50 was 1.54 µM (inactive) in [1]; 1.82 µM (inactive) in assay [2]; 1.89 µM (inactive) in assay [3]; 1.79 µM (inactive) in assay [4]; 1.71 µM (inactive) in assay [5]; 2.09 µM (inactive) in assay [6]. Moreover, the GI50 in assay [7] is 2.07 µM (inactive); in assay [8], 1.73 µM (inactive); in [9], 2.14 µM (inactive); in [10], 1.94 µM (inactive); in assay [11], 1.91 µM (inactive); in assay [12], 1.69 µM (inactive). For the same molecule, the GI50 in assay [13] is 5.7 µM (inactive); in assay [14], 1.61 µM (inactive); in assay [15], 1.62 µM (inactive); in assay [16] it was 1.92 µM (inactive); in [17], 1.66 µM (inactive); in assay [18] it was 1.91 µM (inactive). Moreover, the GI50 in assay [19] was 1.66 µM (inactive); in assay [20], 1.74 µM (inactive).

As to `CC1(c2ccc(F)cc2)CC(c2ccc(F)cc2)=C(C#N)C(=C(C#N)C#N)N1` (stereo not given), the GI50 is 15.3 µM (inactive) in [1]; 19.1 µM (inactive) in [2]; 15.2 µM (inactive) in [3]; 15 µM (inactive) in assay [4]; 14.5 µM (inactive) in [5]; 21.2 µM (inactive) in [6]. Besides, the GI50 in [7] is 16.6 µM (inactive); in assay [8], 14.4 µM (inactive); in assay [9] it was 18.7 µM (inactive); in assay [10], 21.2 µM (inactive); in assay [11], 17.3 µM (inactive); in assay [12], 18 µM (inactive). Besides, the GI50 in assay [13] is 20.5 µM (inactive); in assay [14], 5.98 µM (inactive); in assay [15], 15.8 µM (inactive); in [16] it was 14.1 µM (inactive); in [17], 17.4 µM (inactive); in assay [18], 7.57 µM (inactive). The GI50 is 13.3 µM (inactive) in assay [19] and 17.1 µM (inactive) in [20].

Regarding `O=C(O)c1c(CC(Cc2ccc3c(c2)CCCC3)C(=O)O)ccc2c1CCCC2` (stereo not given), the GI50 in assay [1] is > 100 µM (inactive); in assay [2] it was > 100 µM (inactive); in [3], > 100 µM (inactive); in assay [4], > 100 µM (inactive); in assay [5], < 0.01 µM (active); in [6], > 100 µM (inactive). Also, the GI50 in [7], in [8], in [9], in assay [10], in assay [11] and in assay [12] was > 100 µM (inactive) each time. Besides, the GI50 in assay [13], in [14], in assay [15], in assay [16], in assay [17] and in assay [18] was > 100 µM (inactive) each time. For the same molecule, the GI50 in [19] and in [20] was > 100 µM (inactive) throughout.

As to `O=C(Nc1ccc(N=C=S)cc1Cl)c1cc(Br)cc(Br)c1O`, the GI50 was 26.3 µM (inactive) in assay [1]; 25.8 µM (inactive) in [2]; 15.9 µM (inactive) in assay [3]; 27 µM (inactive) in assay [4]; 31.5 µM (inactive) in assay [5]; 21.5 µM (inactive) in assay [6]. The GI50 was 28.1 µM (inactive) in assay [7]; 24.2 µM (inactive) in [8]; 37.8 µM (inactive) in assay [9]; 18.5 µM (inactive) in [10]; 26.7 µM (inactive) in [11]; 32.6 µM (inactive) in [12]. Further, the GI50 in assay [13] was 24.2 µM (inactive); in assay [14] it was 36.7 µM (inactive); in [15], 36.9 µM (inactive); in assay [16], 23.9 µM (inactive); in [17], 24.6 µM (inactive); in [18] it was 27.3 µM (inactive). For the same molecule, the figures for the GI50 in assay [19] and in assay [20] were 39.7 µM (inactive) and 30.3 µM (inactive), respectively.

Regarding `COC(=O)c1c2c(cc3c1CC1(C3)Cc3cc4c(c(C(C)=O)c3C1)CCC4)C=CC2` (stereo not given), the GI50 was > 31.6 µM (inactive) in assay [1]; > 31.6 µM (inactive) in assay [2]; > 31.6 µM (inactive) in [3]; > 31.6 µM (inactive) in assay [4]; 22.2 µM (inactive) in assay [5]; > 20.7 µM (inactive) in assay [6]. Further, the GI50 was 30.5 µM (inactive) in assay [7]; > 31.6 µM (inactive) in [8]; > 10 µM (inactive) in assay [9]; > 31.6 µM (inactive) in [10]; > 31.6 µM (inactive) in assay [11]; > 31.6 µM (inactive) in assay [12]. Besides, the GI50 is > 31.6 µM (inactive) in [13]; > 31.6 µM (inactive) in assay [14]; > 31.6 µM (inactive) in [15]; 18.6 µM (inactive) in assay [16]; > 31.6 µM (inactive) in assay [17]; > 10 µM (inactive) in [18]. Moreover, the GI50 in assay [19] was 5.69 µM (inactive); in assay [20] it was 24.3 µM (inactive).

Consider `Clc1ccc2c(NCCCC/N=C/c3ccccc3)ccnc2c1`, for which the GI50 was 9.16 µM (inactive) in [1]; 13.4 µM (inactive) in assay [2]; 20.7 µM (inactive) in assay [3]; 7.98 µM (inactive) in [4]; 11.1 µM (inactive) in assay [5]; 13.6 µM (inactive) in [6]. The GI50 in assay [7] is 12.6 µM (inactive); in assay [8] it was 2.82 µM (inactive); in [9] it was 14.4 µM (inactive); in [10] it was 4.33 µM (inactive); in assay [11], 11 µM (inactive); in [12] it was 11 µM (inactive). Besides, the GI50 in assay [13] was 20.7 µM (inactive); in assay [14], 16.5 µM (inactive); in assay [15], 14.2 µM (inactive); in assay [16], 13.5 µM (inactive); in [17], 14.8 µM (inactive); in assay [18], 5.78 µM (inactive). In addition, the GI50 was 12.6 µM (inactive) in assay [19] and 14.8 µM (inactive) in assay [20].

(Values after ChEMBL document CHEMBL1201862, “PubChem BioAssay data set” (2004).)
